Results as given in patent US7393871B2, “Anionic and neutral complexes of ruthenium (II) with nitrogen oxide” (Siega S.R.L., priority 2003, dated 2008).
Like-named read-outs stand apart in the source and are kept apart here.

Assays:
[1] = system: TS/A, a murine adenocarcinoma cell line; experiment: Cytotoxicity, cell viability (MTU test) on TS/A cells; format: cell-based; details: medium with 5% FCS
Experimental: (§1) The cytotoxicity of the ruthenium complexes prepared in Example 4 and 7 was tested on two significative tumor cell lines: MCF-7, a human hormone dependent mammary carcinoma cell line and TS/A, a murine adenocarcinoma cell line. At day 0 4000 TS/A cells and 5000 MCF-7 cells were sown in 96-welled dishes In 200 μl of culture medium. The culture medium used was RPMI medium supplemented with 10% FCS for the TS/A line and a mixture 1:1 of DMEM and F12 medium supplemented with 10% FCS for MCF-7. At day 1 the culture medium was removed and substituted with an identical medium containing 5% FCS only (control) or 5% FCS and the test compound (complex of example 4 or example 7) at the following concentrations: 0.1 μM, 1 μM, 3 μM, 10 μM, 30 μM, 100 μM, 300 μM, 600 μM and 1000 μM.
(§2) After 24, 48 and 72 hours cell viability was evaluated with a MTU test.

[2] = system: MCF-7, a human hormone dependent mammary carcinoma cell line; experiment: Cytotoxicity, cell viability (MTU test) on MCF-7 cells; format: cell-based; details: medium with 5% FCS
Experimental: as §1, §2

[3] = 24 hours exposure, read-out: IC50 TSA 24 hours
[4] = 48 hours exposure, read-out: IC50 TSA 48 hours
[5] = 72 hours exposure, read-out: IC50 TSA 72 hours
[6] = 24 hours exposure, read-out: IC50 MCF-7 24 hours
[7] = 48 hours exposure, read-out: IC50 MCF-7 48 hours
[8] = 72 hours exposure, read-out: IC50 MCF-7 72 hours

| Substance | IC50 [1, 3] [µM] | IC50 [1, 4] [µM] | IC50 [1, 5] [µM] | IC50 [2, 6] [µM] | IC50 [2, 7] [µM] | IC50 [2, 8] [µM] |
| --- | --- | --- | --- | --- | --- | --- |
| [Im2H][trans-Ru^IICl4(Im)NO] [Complex of Ex. 7] | 141 | 39 | 33 | 532 | 143 | 18 |
| [ImH][trans-Ru^IICl4(Me2SO—O)NO] [Complex of Ex. 4] | 155 | 20 | 17 | 764 | 118 | 26 |
